# According to ChEMBL document CHEMBL3045867, “Synthesis, characterization, and antimicrobial evaluation of novel naphthalene-based 1,2,4-triazoles” (2012):
# How the values were obtained:
# Format in all cases: functional
# Pseudomonas aeruginosa = assay: Antibacterial activity against Pseudomonas aeruginosa MTCC 1688 after 24 to 48 hr by serial broth dilution method
# Streptococcus pyogenes = assay: Antibacterial activity against Streptococcus pyogenes MTCC 442 after 24 to 48 hr by serial broth dilution method
# Aspergillus clavatus = assay: Antifungal activity against Aspergillus clavatus MTCC 1323 after 72 hr; conditions: MTCC 1323, 72 h
# Escherichia coli = assay: Antibacterial activity against Escherichia coli MTCC 443 after 24 to 48 hr by serial broth dilution method
# Aspergillus niger = assay: Antifungal activity against Aspergillus niger MTCC 282 after 72 hr; conditions: MTCC 282, 72 h
# Staphylococcus aureus = assay: Antibacterial activity against Staphylococcus aureus MTCC 96 after 24 to 48 hr by serial broth dilution method
# Candida albicans = assay: Antifungal activity against Candida albicans MTCC 227 after 72 hr; conditions: MTCC 227, 72 h
Compound,MIC99 (Pseudomonas aeruginosa),MIC99 (Streptococcus pyogenes),MIC99 (Aspergillus clavatus),MIC99 (Escherichia coli),MIC99 (Aspergillus niger),MIC99 (Staphylococcus aureus),MIC99 (Candida albicans)
O=C(Nn1c(S)nnc1-c1cccc2ccccc12)c1cccc([N+](=O)[O-])c1,100 µg/mL,500 µg/mL,100 µg/mL,100 µg/mL,200 µg/mL,100 µg/mL,200 µg/mL
CC1(C)S[C@@H]2[C@H](NC(=O)[C@H](N)c3ccccc3)C(=O)N2[C@H]1C(=O)O [AMPICILLIN],100 µg/mL,100 µg/mL,–,100 µg/mL,–,250 µg/mL,–
O=C(Cc1ccccc1)Nn1c(S)nnc1-c1cccc2ccccc12,500 µg/mL,200 µg/mL,500 µg/mL,500 µg/mL,500 µg/mL,250 µg/mL,1000 µg/mL
COc1ccccc1C(=O)Nn1c(S)nnc1-c1cccc2ccccc12,250 µg/mL,500 µg/mL,500 µg/mL,100 µg/mL,200 µg/mL,250 µg/mL,200 µg/mL
O=C(Nn1c(S)nnc1-c1cccc2ccccc12)c1ccc([N+](=O)[O-])cc1,25 µg/mL,500 µg/mL,50 µg/mL,50 µg/mL,50 µg/mL,250 µg/mL,50 µg/mL
O=C(Nn1c(S)nnc1-c1cccc2ccccc12)c1cccc(Cl)c1,250 µg/mL,100 µg/mL,50 µg/mL,25 µg/mL,50 µg/mL,250 µg/mL,50 µg/mL
O=C(Nn1c(S)nnc1-c1cccc2ccccc12)c1ccc2cccc([N+](=O)[O-])c2c1,100 µg/mL,250 µg/mL,50 µg/mL,200 µg/mL,100 µg/mL,250 µg/mL,100 µg/mL
O=C(Nn1c(S)nnc1-c1cccc2ccccc12)c1ccc(O)cc1,100 µg/mL,500 µg/mL,500 µg/mL,250 µg/mL,500 µg/mL,100 µg/mL,500 µg/mL
O=C(Nn1c(S)nnc1-c1cccc2ccccc12)c1ccccc1O,1000 µg/mL,500 µg/mL,200 µg/mL,1000 µg/mL,500 µg/mL,500 µg/mL,500 µg/mL
COC1=CC(=O)C[C@@H](C)[C@]12Oc1c(Cl)c(OC)cc(OC)c1C2=O [GRISEOFULVIN],–,–,100 µg/mL,–,100 µg/mL,–,500 µg/mL
O=C(Nn1c(S)nnc1-c1cccc2ccccc12)c1ccccc1,50 µg/mL,1000 µg/mL,1000 µg/mL,500 µg/mL,1000 µg/mL,500 µg/mL,1000 µg/mL
O=C(COc1ccc2ccccc2c1)Nn1c(S)nnc1-c1cccc2ccccc12,250 µg/mL,500 µg/mL,500 µg/mL,100 µg/mL,500 µg/mL,250 µg/mL,500 µg/mL
O=C(Nn1c(S)nnc1-c1cccc2ccccc12)c1ccccc1Cl,100 µg/mL,500 µg/mL,250 µg/mL,50 µg/mL,100 µg/mL,500 µg/mL,50 µg/mL
Cc1ccccc1C(=O)Nn1c(S)nnc1-c1cccc2ccccc12,100 µg/mL,100 µg/mL,100 µg/mL,100 µg/mL,500 µg/mL,500 µg/mL,200 µg/mL
